# Test results as given in ChEMBL document CHEMBL6092192 (J Med Chem, 2024).
# Activity calls are given as the source filed them. The calls are words filed in the database; no cut-off is given here.
# Key:
# [1] = Toxicity in BALB/c nude mouse xenografted with […] CT26/TAXOL cells assessed as mortality at 100 mg/kg/day, IG measured upto 14 days in presence of paclitaxel; assay type: organism-based; settings: in vivo, po, 336 h, time < 14 day
# [2] = biological target: T1, ATP-dependent translocase ABCB1 (Homo sapiens, UniProt P08183); experiment: Inhibition of ABCB1 in human SW620/AD300 cells assessed as increase in intracellular paclitaxel incubated for 4 hrs by liquid scintillation analysis; assay type: cell-based; settings: sw620/ad300, 4 h, at 2 to 4 µM, dose 2-4 µM
# T1 sequence (P08183 whole entry): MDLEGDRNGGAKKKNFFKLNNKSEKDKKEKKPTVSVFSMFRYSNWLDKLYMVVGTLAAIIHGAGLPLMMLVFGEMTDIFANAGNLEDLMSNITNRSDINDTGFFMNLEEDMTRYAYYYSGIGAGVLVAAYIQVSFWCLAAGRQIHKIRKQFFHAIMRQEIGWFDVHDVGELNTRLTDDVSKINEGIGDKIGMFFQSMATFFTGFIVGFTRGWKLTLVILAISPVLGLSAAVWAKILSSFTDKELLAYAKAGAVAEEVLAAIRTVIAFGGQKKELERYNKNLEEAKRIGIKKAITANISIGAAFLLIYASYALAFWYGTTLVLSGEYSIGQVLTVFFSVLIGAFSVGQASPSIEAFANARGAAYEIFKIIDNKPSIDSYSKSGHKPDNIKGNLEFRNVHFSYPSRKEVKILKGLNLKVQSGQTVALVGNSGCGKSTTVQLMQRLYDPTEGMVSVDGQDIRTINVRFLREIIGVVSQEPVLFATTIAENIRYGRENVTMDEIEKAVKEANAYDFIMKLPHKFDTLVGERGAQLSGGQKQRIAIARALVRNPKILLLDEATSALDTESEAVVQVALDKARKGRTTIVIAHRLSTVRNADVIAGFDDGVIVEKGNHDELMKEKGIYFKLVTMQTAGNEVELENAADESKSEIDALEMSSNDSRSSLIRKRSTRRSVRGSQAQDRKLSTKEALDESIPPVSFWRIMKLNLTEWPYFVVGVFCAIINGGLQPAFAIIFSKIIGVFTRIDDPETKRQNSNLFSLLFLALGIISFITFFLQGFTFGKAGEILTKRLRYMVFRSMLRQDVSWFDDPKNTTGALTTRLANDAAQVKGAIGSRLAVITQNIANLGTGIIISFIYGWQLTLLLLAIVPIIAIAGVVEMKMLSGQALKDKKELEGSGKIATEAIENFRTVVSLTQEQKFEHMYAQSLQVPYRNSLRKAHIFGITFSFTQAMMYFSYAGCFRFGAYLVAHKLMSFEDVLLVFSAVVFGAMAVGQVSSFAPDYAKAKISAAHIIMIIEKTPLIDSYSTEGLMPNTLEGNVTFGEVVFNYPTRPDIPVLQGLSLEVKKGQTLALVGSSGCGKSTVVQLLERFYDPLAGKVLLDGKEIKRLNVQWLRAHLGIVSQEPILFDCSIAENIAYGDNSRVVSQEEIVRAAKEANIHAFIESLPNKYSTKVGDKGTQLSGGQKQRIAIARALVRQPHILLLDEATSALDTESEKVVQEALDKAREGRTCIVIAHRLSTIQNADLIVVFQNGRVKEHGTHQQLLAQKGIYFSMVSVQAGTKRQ
# [3] = Toxicity in BALB/c nude mouse assessed as effect on liver liver injury at 100 mg/kg/day, IG measured after 21 days in presence of paclitaxel by H and E staining based analysis; assay type: organism-based; settings: in vivo, po, 504 h, time 21 day
# Cytochrome P450 3A4 [4] = biological target: T2, Cytochrome P450 3A4 (Homo sapiens, UniProt P08684); experiment: Activation of recombinant CYP3A4 in human liver microsomes at 4 uM measured after 30 mins in presence of NADPH generating system by fluorescence based analysis; assay type: ADME, Microsome; settings: 0.5 h
# T2 sequence (P08684 whole entry): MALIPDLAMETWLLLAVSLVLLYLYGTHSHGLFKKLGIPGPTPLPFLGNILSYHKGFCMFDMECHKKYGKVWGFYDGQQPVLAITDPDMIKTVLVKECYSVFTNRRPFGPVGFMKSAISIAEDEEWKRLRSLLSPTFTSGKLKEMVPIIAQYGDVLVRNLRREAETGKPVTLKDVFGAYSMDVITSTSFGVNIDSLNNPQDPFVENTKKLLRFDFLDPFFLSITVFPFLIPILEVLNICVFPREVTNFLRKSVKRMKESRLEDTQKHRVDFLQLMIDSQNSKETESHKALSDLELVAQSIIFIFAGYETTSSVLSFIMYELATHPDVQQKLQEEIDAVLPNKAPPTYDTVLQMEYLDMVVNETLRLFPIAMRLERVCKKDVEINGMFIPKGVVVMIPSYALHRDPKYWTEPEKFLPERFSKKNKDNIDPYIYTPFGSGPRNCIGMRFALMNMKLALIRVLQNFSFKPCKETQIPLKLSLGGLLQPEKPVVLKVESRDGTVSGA
# [5] = Toxicity in BALB/c nude mouse xenografted with […] CT26/TAXOL cells assessed as effect on heart at 100 mg/kg/day, IG measured after 14 days by H and E staining based analysis; assay type: organism-based; settings: in vivo, po, 336 h, time 14 day
# [6] = Toxicity in BALB/c nude mouse xenografted with […] CT26/TAXOL cells assessed as change in body weight at 100 mg/kg/day, IG measured upto 14 days in presence of paclitaxel; assay type: organism-based; settings: in vivo, po, 336 h, time < 14 day
# SW620/AD300 [7] = experiment: Reversal of paclitaxel resistance in human SW620/AD300 cells assessed as reversal fold by measuring ratio of paclitaxel IC50 to paclitaxel IC50 in presence of test compound at 2 uM incubated for 72 hrs by MTT assay; assay type: functional
# HEK293 [8] = experiment: Cytotoxicity against HEK293 cells transfected with pcDNA3.1 assessed as survival rate at 5 uM measured after 72 hrs by MTT assay relative to control; assay type: functional; settings: Homo sapiens, read-out: Survival
# [9] = MRT (0 to infinity) in 12 hrs fasted Sprague-Dawley rat at 10 mg/kg, po measured upto 720 mins by HPLC-MS/MS analysis; assay type: ADME, organism-based; settings: in vivo
# CT26/TAXOL = experiment: Antitumor T-cell immune response in […] cells xenografted in BALB/c nude mouse model assessed as reduction in tumor weight at 100 mg/kg/day, IG in presence of anti-PD-1/paclitaxel measured after 14 days; assay type: functional, organism-based; settings: time 14.0 day
# [10] = Toxicity in BALB/c nude mouse assessed as mortality at 100 mg/kg/day, IG measured after 21 days in presence of paclitaxel; assay type: organism-based; settings: in vivo, po, 504 h, time 21 day
# SW620/AD300 [11] = experiment: Antitumor activity against human SW620/AD300 cells xenografted in male BALB/c nude mouse model assessed as reduction in tumor volume at 100 mg/kg/day, IG measured after 21 days in presence of paclitaxel; assay type: functional, organism-based; settings: time 21.0 day
# hERG (KCNH2) = hERG (KCNH2) (Homo sapiens, UniProt Q12809); experiment: Inhibition of human ERG expressed in CHO cells at 40 uM by QPatch assay relative to control; assay type: toxicity, cell-based; settings: CHO cells expressing human ERG
# Chain of hERG (KCNH2) (Q12809 whole entry): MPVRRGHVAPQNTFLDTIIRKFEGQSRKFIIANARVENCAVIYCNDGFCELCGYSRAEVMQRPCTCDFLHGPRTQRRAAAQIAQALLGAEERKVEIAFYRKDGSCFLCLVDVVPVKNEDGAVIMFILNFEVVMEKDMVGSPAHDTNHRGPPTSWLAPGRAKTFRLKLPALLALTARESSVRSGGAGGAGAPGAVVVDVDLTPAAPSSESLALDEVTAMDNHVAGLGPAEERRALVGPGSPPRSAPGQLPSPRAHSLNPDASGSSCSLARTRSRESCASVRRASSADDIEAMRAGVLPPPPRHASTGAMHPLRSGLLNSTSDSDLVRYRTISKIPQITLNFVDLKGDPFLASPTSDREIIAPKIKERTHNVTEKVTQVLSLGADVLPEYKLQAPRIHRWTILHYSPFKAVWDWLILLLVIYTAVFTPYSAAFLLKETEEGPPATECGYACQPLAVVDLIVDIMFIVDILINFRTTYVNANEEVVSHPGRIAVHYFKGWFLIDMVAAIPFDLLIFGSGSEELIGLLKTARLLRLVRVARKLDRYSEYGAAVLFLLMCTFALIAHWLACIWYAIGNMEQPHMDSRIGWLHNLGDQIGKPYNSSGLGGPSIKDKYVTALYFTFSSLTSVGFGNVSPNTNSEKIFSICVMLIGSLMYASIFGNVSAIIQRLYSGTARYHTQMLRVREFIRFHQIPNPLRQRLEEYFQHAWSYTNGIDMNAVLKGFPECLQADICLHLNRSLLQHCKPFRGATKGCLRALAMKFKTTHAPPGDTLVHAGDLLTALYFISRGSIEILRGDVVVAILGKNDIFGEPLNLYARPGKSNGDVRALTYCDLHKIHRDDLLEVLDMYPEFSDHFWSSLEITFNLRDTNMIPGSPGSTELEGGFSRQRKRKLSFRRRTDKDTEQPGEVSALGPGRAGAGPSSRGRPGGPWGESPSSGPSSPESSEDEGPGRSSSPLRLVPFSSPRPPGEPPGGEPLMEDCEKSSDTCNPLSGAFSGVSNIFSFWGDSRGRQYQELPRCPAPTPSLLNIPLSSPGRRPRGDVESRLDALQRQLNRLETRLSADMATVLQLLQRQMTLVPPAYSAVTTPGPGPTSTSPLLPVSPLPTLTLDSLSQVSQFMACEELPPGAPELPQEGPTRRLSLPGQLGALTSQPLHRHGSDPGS
# SW620/AD300 [12] = experiment: Antitumor activity against human SW620/AD300 cells xenografted in male BALB/c nude mouse model assessed as reduction in tumor volume at 100 mg/kg/day, IG measured after 21 days; assay type: functional, organism-based; settings: time 21.0 day
# Cytochrome P450 3A4 [13] = biological target: T2, Cytochrome P450 3A4; experiment: Activation of recombinant CYP3A4 in human liver microsomes at 30 uM measured upto 40 mins in presence of NADPH generating system by fluorescence based analysis; assay type: ADME, Microsome
# [14] = biological target: T1, ATP-dependent translocase ABCB1; experiment: Induction of thermal stabilization of ABCB1 in human SW620/AD300 cells at 200 uM measured after 30 mins by thermal shift assay; assay type: cell-based; settings: sw620/ad300, 0.5 h
# [15] = Toxicity in BALB/c nude mouse xenografted with […] CT26/TAXOL cells assessed as effect on brain at 100 mg/kg/day, IG measured after 14 days by H and E staining based analysis; assay type: organism-based; settings: in vivo, po, 336 h, time 14 day
# HEK293 [16] = experiment: Cytotoxicity against HEK293 cells harbouring ABCB1 assessed as survival rate at 2 uM measured after 72 hrs by MTT assay relative to control; assay type: functional; settings: Homo sapiens, read-out: Survival
# KB-C2 = experiment: Reversal of paclitaxel resistance in human KB-C2 cells assessed as reversal fold by measuring ratio of paclitaxel IC50 to paclitaxel IC50 in presence of test compound at 2 uM incubated for 72 hrs by MTT assay; assay type: functional
# [17] = Toxicity in Sprague-Dawley rat assessed as fatality at 250 to 1000 mg/kg, po measured for 14 days administered as single dose; assay type: organism-based; settings: in vivo, 336 h, dose 250-1000 mg/kg, time 14 day
# SW620/AD300 [18] = experiment: Antitumor activity against human SW620/AD300 cells xenografted in male BALB/c nude mouse model assessed as increase in apoptosis at 100 mg/kg/day, IG in presence of paclitaxel by tunel staining based immunofluorescence analysis; assay type: functional, organism-based
# [19] = Toxicity in BALB/c nude mouse xenografted with […] CT26/TAXOL cells assessed as effect on brain at 100 mg/kg/day, IG in presence of paclitaxel/anti-PD-1 measured after 14 days by H and E staining based analysis; assay type: organism-based; settings: in vivo, po, 336 h, time 14 day
# [20] = biological target: T1, ATP-dependent translocase ABCB1; experiment: Activation of ABCB1 ATPase activity (unknown origin) infected in insect cells at 18.5 uM incubated for 20 mins in presence of Mg-ATP by spectrophotometric analysis; assay type: cell-based; settings: insect cell
# SW620/AD300 [21] = experiment: Antitumor activity against human SW620/AD300 cells xenografted in male BALB/c nude mouse model assessed as reduction in tumor weight at 100 mg/kg/day, IG measured after 21 days in presence of paclitaxel; assay type: functional, organism-based; settings: time 21.0 day
# CD8-positive T cell [22] = experiment: Activation of immune response in human CD8-positive T cell assessed as increase in IFN-gamma level at 4 uM by ELISA method; assay type: functional, cell-based
# [23] = Toxicity in BALB/c nude mouse xenografted with […] CT26/TAXOL cells assessed as effect on lung at 100 mg/kg/day, IG measured after 14 days by H and E staining based analysis; assay type: organism-based; settings: in vivo, po, 336 h, time 14 day
# [24] = Toxicity in BALB/c nude mouse xenografted with […] CT26/TAXOL cells assessed as effect on kidney at 100 mg/kg/day, IG in presence of paclitaxel/anti-PD-1 measured after 14 days by H and E staining based analysis; assay type: organism-based; settings: in vivo, po, 336 h, time 14 day
# [25] = Toxicity in BALB/c nude mouse xenografted with […] CT26/TAXOL cells assessed as effect on heart at 100 mg/kg/day, IG in presence of paclitaxel/anti-PD-1 measured after 14 days by H and E staining based analysis; assay type: organism-based; settings: in vivo, po, 336 h, time 14 day
# [26] = Reversal of paclitaxel resistance in HEK293 cells transfected with pcDNA3.1 assessed as reversal fold by measuring ratio of paclitaxel IC50 to paclitaxel IC50 in presence of test compound at 4 uM incubated for 72 hrs by MTT assay; assay type: functional, Homo sapiens
# CD8-positive T cell [27] = experiment: Activation of immune response in human CD8-positive T cell assessed as increase in granzyme level at 4 uM by ELISA method; assay type: functional, cell-based
# [28] = MRT (0 to infinity) in 12 hrs fasted Sprague-Dawley rat at 1 mg/kg, iv measured upto 720 mins by HPLC-MS/MS analysis; assay type: ADME, organism-based; settings: in vivo
structure (smiles),measurement,setting,value
O=c1c2c([nH]c3nc(SCc4nc5ccccc5s4)nn13)CCC2,Activity,[1],Non-toxic
same,inhibition (INH),[2],Dose-dependent-effect
same,Activity,[3],Non-toxic
same,Activity,Cytochrome P450 3A4 [4],Active
same,Activity,[5],Non-toxic
same,Activity,[6],Non-toxic
same,Ratio IC50,SW620/AD300 [7],168.91
same,viability at 5 µM,HEK293 [8],94.3%
same,MRT inf,[9],7.24 h
same,Activity,CT26/TAXOL,Active
same,Activity,[10],Non-toxic
same,Activity,SW620/AD300 [11],Active
same,inhibition at 40 µM,hERG (KCNH2),32%
same,Activity,SW620/AD300 [12],Active; Compound Showed Negligible Effect
same,Activity,Cytochrome P450 3A4 [13],Active
same,Activity,[14],Active
same,Activity,[15],Non-toxic
same,viability at 2 µM,HEK293 [16],98.2%
same,Ratio IC50,KB-C2,106.85
same,Activity,[17],Non-toxic
same,Activity,SW620/AD300 [18],Active
same,Activity,[19],Non-toxic
same,Activity,[20],Active
same,Activity,SW620/AD300 [21],Active
same,Activity,CD8-positive T cell [22],Active
same,Activity,[23],Non-toxic
same,Activity,[24],Non-toxic
same,Activity,[25],Non-toxic
same,Ratio IC50,[26],1.16
same,Activity,CD8-positive T cell [27],Active
same,MRT inf,[28],5.49 h
